# Experimental data: patent US20120190752A1, “EXO-S-MECAMYLAMINE METHOD, USE, AND COMPOUND FOR TREATMENT” (Targacept Inc., priority 2009, published 2012)
# Test system: subjects with major depressive disorder (MDD) who were inadequate responders to citalopram
# Assay: CGI-I / CGI-GI (Clinical Global Impression-Improvement), Phase 2b add-on trial
# Format: in vivo, human
# From the text: The Clinical Global Impression—Improvement scale (CGI-I) is a 7 point scale that requires the clinician to assess how much the patient's illness has improved or worsened relative to a baseline state at the beginning of the intervention. The Clinical Global Impression—Efficacy Index is a 4 point×4 point rating scale that assesses the therapeutic effect of the treatment. In more detail, a multi-center double-blind, randomized, placebo-controlled, parallel group, flexible dose titration study of TC-5214 as adjunctive therapy in subjects with major depressive disorder (MDD) who were inadequate responders to citalopram was conducted in centers in the US and India. The study consisted of a screening period, baseline/washout period, open-label phase, double-blind phase, and a follow-up visit. Subject participation in the study could continue for up to 16 weeks of treatment. Following a washout period of up to 28 days for other antidepressants, subjects with MDD and a MADRS total score >/=28 and a Clinical Global Impression-Severity (CGI-S) score >/=4 were enrolled on Day 1 into an open-label citalopram-only phase of the study. This phase lasted 8 weeks, with citalopram (CIT) dose increased from a once-daily dose of 20 mg (Day 1 through Week 4) to 40 mg (Week 4 through Week 8). A total of 579 subjects entered the open-label citalopram phase. At Week 8, subjects who tolerated 40 mg CIT, but whose MADRS score was reduced <50% from baseline and no lower than 17, and CGI-S≧4, were considered inadequate responders. These subjects (n=270) were randomized in a double-blind fashion to receive either placebo or TC-5214-23 as add-on therapy to continued CIT. The double-blind phase of the study also lasted 8 weeks (Week 8 to Week 16). Study drug, TC-5214-23 or placebo, was started at 2 mg daily (1 mg twice per day [BID] dosing), added on to continuing CIT (40 mg PO qd). After 2 weeks of treatment, the dose of TC-5214 could be increased to 4 mg (2 mg BID) or continued unchanged, with up-titration based upon good tolerability and inadequate therapeutic response. After a further 2 weeks, the dose of TC-5214 could be increased again to 8 mg (4 mg BID) if judged appropriate by the investigator, based upon good tolerability and inadequate therapeutic response. At any time during the double-blind phase of the study, placebo or TC-5214-23 could be reduced to the previous dose level following the emergence of unacceptable adverse events (AEs). […] At this follow-up, any signs or symptoms of relapse were evaluated. If a subject was prematurely discontinued from the study between Week 8 and Week 16 for any reason, the investigator was to make every effort to perform all evaluations as per protocol, assuming the subject had reached the end of the double-blind add-on treatment phase. These evaluations were to be made as soon as possible and within 2 weeks of discontinuation. […] There was no meaningful difference in results as a function of age, gender, site, or smoking status. With regard to efficacy endpoints, the following tables present efficacy used in the ITT (Intent-to-Treat) and PP (Per Protocol) populations unless otherwise specific. The primary inference was based upon Week 16 visit using the ITT population. Change from baseline was obtained by subtracting the baseline values from the individual on-treatment values. Change from Week 16 was obtained by subtracting the Week 16 values from the individual follow-up visit (Week 18/19) values. If either the baseline or Week 16 or on-treatment or follow-up value was missing, the change from baseline or Week 16 value was also set to missing. To account for missing data, the last observation carry forward (LOCF) method was used for the ITT and PP populations. Thus, the last available on-therapy observation for a subject, including the observation at premature discontinuation, was used to estimate subsequent missing data points. […]
# [1] = ITT Population, Double Blind Week 16 LOCF
# [2] = ITT Population, Double Blind Week 18 LOCF (Follow-up)
# [3] = PP Population, Double Blind Week 16 LOCF
# [4] = PP Population, Double Blind Week 18 LOCF (Follow-up)
smiles,measurement,setting,value
"CNC1(C)C2CCC(C2)C1(C)C (stereo in doubt) [TC-5214, (S)—N,2,3,3-tetramethylnorbornan-2-amine]",CGI-I Adjusted Mean,[1],1.91
same,CGI-I Mean Difference between TC-5214 and Placebo,[1],0.79
same,CGI-I Adjusted Mean,[2],1.90
same,CGI-I Mean Difference between TC-5214 and Placebo,[2],0.71
same,CGI-I score compared with placebo,"ITT and PP populations, Week 16 and Week 18, result in words",statistically significant decreases (improvements)
same,CGI-GI Difference vs Placebo + CIT,"ITT, Week 16 LOCF",−0.79
same,CGI-GI Adj. Mean,"ITT, Week 16 LOCF, add-on to citalopram",1.91
same,CGI-I Adjusted Mean,[3],1.84
same,CGI-I Mean Difference between TC-5214 and Placebo,[3],0.78
same,CGI-I Adjusted Mean,[4],1.83
same,CGI-I Mean Difference between TC-5214 and Placebo,[4],0.71
